Work on `O=S(=O)(c1ccccc1)c1ccc(Br)cc1` yielded a melting point of 95 to 99 °C. For `COc1cccc(CCOc2cccc(-c3cccc(C(=O)O)c3)n2)c1`, the melting point was 156 to 157 °C. With `OCC=Cc1ccc(-c2ccc(OC(F)(F)F)cc2)cc1` the melting point was 121 to 123 °C. Compound `c1cncc(C2=NOC(C3CC3)(N3CCCC3)C2)c1` (centres undefined) has a melting point of 90 to 92 °C. In the case of `Cc1csc2nc(Sc3ccccc3NC(=O)N[C@@H](Cc3ccc(NC(=O)c4c(Cl)cncc4Cl)cc3)C(=O)O)cnc12`, the melting point is reported as 193 °C. `CCOC(=O)c1ccccc1N(CC(=O)OC(C)(C)C)C(=O)CNC(=O)Nc1cccc(C)c1` showed a melting point of 142 °C. For `COc1c(O)c(C)c2c(c1OC)Nc1ccccc1S2`, the melting point was 218 to 220 °C. For `CCCc1c(OCc2ccc(/C=C3\SC(=S)NC3=O)cc2)ccc(C(=O)c2ccccc2)c1O`, the melting point was 229 to 230 °C. In the case of `Cc1ccc(P(c2ccc(C)cc2)c2cccc3c2-c2c(cccc2P(c2ccc(C)cc2)c2ccc(C)cc2)OCCCO3)cc1`, the melting point is reported as 108 to 110 °C. For `CC(=O)N1c2ccccc2CC1c1ccccc1NC(=O)C(C)(C)C` (centres undefined), the melting point was 184 to 186 °C. With `CCCCc1nn(-c2cccc([N+](=O)[O-])c2)c(=O)n1Cc1ccc(-c2ccccc2S(N)(=O)=O)cc1` the melting point was 73 to 76 °C. In the case of `O=[N+]([O-])c1ccc2c(c1)Sc1cc(OC/C=C/I)ccc1N2`, the melting point is reported as over 250 °C. `O=C(Oc1ccnc(OC(=O)c2ccccc2)c1)c1ccccc1` gave a melting point of 100 to 102 °C. `CC(C)Cn1c(CNC(=O)OC(C)(C)C)c(-c2ccccc2F)c2cc(OCc3ccccc3)ccc2c1=O` showed a melting point of 138 to 139 °C. For `CS(=O)(=O)ON=C(Cl)c1ccc(Cl)c(Cl)c1`, the melting point was 73 to 75 °C. `N#Cc1cnc2c(sc3ccccc32)c1Cl` gave a melting point of 305 to 308 °C. With `C=CCn1c(=O)c(C(=O)O)c(NC(=O)CCl)c2cccnc21` the melting point was 145 to 148 °C. Compound `O=C(O)COc1c(Cl)cc(Cl)cc1COc1cccc(OCc2ccc3cc(F)ccc3n2)c1` has a melting point of 189 to 190 °C. With `COn1c(C)nc2c(NCc3c(C)cccc3C)cc(C(=O)N(C)C)cc21` the melting point was 128 to 129 °C. `COc1ccc(-c2nc(C(F)(F)F)[nH]c2-c2ccc(S(C)(=O)=O)cc2)cc1OC` showed a melting point of 221 to 224 °C. Work on `CC(=NOc1cccc(C(F)(F)F)c1)c1cc(Cl)ccc1NS(=O)(=O)C(F)(F)F` yielded a melting point of 63 to 64 °C. With `Clc1ccc(Nc2cncc(-n3ncc4ccccc43)n2)cc1` the melting point was 204 to 207 °C. In the case of `COC(=O)c1ccc(-c2cnc3[nH]c(=O)n(CC4CCCCC4)c3n2)cc1`, the melting point is reported as 253 to 255 °C. With `OCC(O)Cc1nccn1CCCc1cccc(OCc2coc(/C=C/c3ccc(F)cc3F)n2)c1` (centres undefined) the melting point was 92 to 94 °C. Compound `CCCCCCCc1ccc(C(=O)CCC(=O)O)cc1` has a melting point of 101 to 104 °C. Compound `O=S1(=O)Oc2ccccc2Nc2ncccc21` has a melting point of 208 to 209 °C. Compound `NCC1Cc2cc(C(F)(F)F)cc(-c3cc(F)ccc3F)c2O1` (centres undefined) has a melting point of over 250 °C. Work on `CC(=O)Nc1c(C)ccc(N)c1C` yielded a melting point of 195 to 197 °C. Work on `Cc1cc(C)c(Nc2nc(C)ncc2S(=O)(=O)c2ccc(C#N)cc2)c(C)c1` yielded a melting point of 258 to 260 °C. For `CCc1nc(-c2ccc(OCCCN3C(=O)c4ccccc4C3=O)cc2)no1`, the melting point was 135 to 136 °C. For `O=c1[nH]c(NCCSCc2nccs2)nnc1Cc1cccnc1`, the melting point was 158 to 159 °C. `COc1ccc(Nc2cc(Cl)nc(SC)n2)cc1` gave a melting point of 128 to 131 °C. In the case of `Cc1ccc(N2C(=O)C(O)=C(C(=O)c3ccc(C(C)C)cc3)C2c2ccc(OC(C)C)nc2)nn1` (centres undefined), the melting point is reported as 282 °C. `COc1ccc(/C=C/S(=O)(=O)CS(=O)(=O)/C=C/c2ccc(O)c(OC)c2)cc1O` showed a melting point of 148 to 150 °C. Compound `COc1cc(-c2cccs2)cc(OC)c1/C=C/C(=O)c1ccc(C(=O)O)cc1` has a melting point of 256 to 258 °C. For `C=Cc1c(N)nc(-c2ccc(Cl)nc2)nc1C(=O)OC`, the melting point was 194 to 195 °C. Work on `CC(C)(CO)[C@@H](O)C#N` yielded a melting point of 110 °C. Compound `Cn1ncc(N2CCNCC2)c(Cl)c1=O` has a melting point of 83 to 87 °C. In the case of `O=C(O)C1CCOc2ccc(F)cc21` (centres undefined), the melting point is reported as 111 to 115 °C. `CC(C)(C)CNc1cc(N2CCNCC2)nc(NCC(C)(C)C)n1` showed a melting point of 138 to 140 °C. Work on `CC1C(O)CCC2CC3(CCC21)OCCO3` (centres undefined) yielded a melting point of 56 to 68 °C. With `CCCc1c(OCCCCCOc2ccccc2OCC(=O)O)ccc2c1OCCC2=O` the melting point was 98 to 99 °C. `CC(=O)NC[C@H]1CN(c2cc(F)c(C3CCN(C(=O)COCc4ccccc4)CC3)c(F)c2)C(=O)O1` gave a melting point of 169 to 171 °C. Work on `COC(=O)COc1cccc2c(CCS(=O)CCc3ccccc3)c(C)oc12` (centres undefined) yielded a melting point of 77 to 78 °C. Work on `Cc1ccc2c(C(=O)O)csc2c1` yielded a melting point of 205 to 209 °C. With `COc1cc(F)c2c(c1)Oc1ccccc1S2(=O)=O` the melting point was 226 to 230 °C. Compound `CCCNCCc1c[nH]c2ccc(NC(N)=O)cc12` has a melting point of 146 to 147 °C. With `CC1=C(C(=O)NC(C)(C)C)C(c2ccccc2Cl)C(C(=O)OC(C)C)=C(COCCCc2nc3ccccc3n2C)N1` (centres undefined) the melting point was 216 °C. Compound `CCCCc1cn(CCCC)c(=O)n1Cc1ccc(-c2ncccc2-c2nnn[nH]2)cc1` has a melting point of 178 to 180 °C. For `N#CC(C(=O)c1ccc(-c2nnn[nH]2)cc1)=C1CCCCN1`, the melting point was over 220 °C. `COC(=O)c1cccc2nc(SCCN3CCN(CCNC(=O)Nc4c(C(C)C)cccc4C(C)C)CC3)oc12` showed a melting point of 186 to 188 °C. Compound `COc1ccc(C)cc1-c1cc(F)cc2c1OC(CN)C2` (centres undefined) has a melting point of 110 to 111 °C. Work on `CCCNS(=O)(=O)c1cc2cc(P(=O)(O)O)c(=O)[nH]c2cc1Cl` yielded a melting point of over 300 °C. Compound `COc1ccccc1Oc1ccc(Br)cc1OC` has a melting point of 58 to 60 °C. Compound `O=C(NS(=O)(=O)Cl)Oc1c(-c2ccccc2)cccc1-c1ccccc1` has a melting point of 159 to 162 °C. `CCOC(=O)c1c(C)nc(NN=C(C)C)c2nnn(CC)c12` showed a melting point of 68 to 72 °C. `CCn1c(=O)c2[nH]c(/C=C/c3ccc(OC)cc3OC)nc2n(CC)c1=O` gave a melting point of 279 to 280 °C. `CCOc1cc(Br)ccc1C=NNC(=N)NN=Cc1ccc(Br)cc1OCC` gave a melting point of 195 to 197 °C. With `Cc1n[nH]c2c1c(=O)n(-c1ccccc1)c1ncccc21` the melting point was over 300 °C. `CCCc1cc(C(=O)NC(C)(C)C)no1` gave a melting point of 34 to 37 °C. In the case of `COc1ccccc1CNc1ccc2cc(Nc3nc(C)cc(C)n3)ccc2n1`, the melting point is reported as 158 °C. Compound `CCCSc1ccc2cc[nH]c2c1` has a melting point of 54 to 55 °C. Compound `Nc1c(Cl)cc(C(O)CNCCCCCCOCCCCCCc2cncnc2)cc1Cl` (centres undefined) has a melting point of 59 to 60 °C. Work on `Cc1ccc(-c2c(C(=O)NCc3cc(C(F)(F)F)cc(C(F)(F)F)c3)n(C[C@H](C)CO)c(=O)c3ncccc23)cc1` yielded a melting point of 123 to 125 °C. `NNC(=O)c1[nH]cc(OCc2ccccc2)c(=O)c1Br` gave a melting point of 184 °C. With `N=c1[nH]c(=N)c2ncn(C3OC(CO)C(O)C3O)c2c(=N)[nH]1` (centres undefined) the melting point was over 200 °C. Compound `COc1ccc(CCN(C)CCCCc2ccc(NC(=O)c3cccc4c(=O)c5ccccc5oc34)cc2)cc1OC` has a melting point of 102 °C. In the case of `CC1(O)c2ccc(Cl)cc2CC1(F)S(C)(=O)=O` (centres undefined), the melting point is reported as 148 °C. `CC(C)(C)OC(=O)N1CCC(C)(c2nc(-c3ccncc3)c(-c3ccc(F)cc3)[nH]2)CC1` gave a melting point of 157 to 160 °C. `O=P1(c2ccc(-c3ccccc3)cc2)c2ccccc2CN1c1ccccc1` (centres undefined) gave a melting point of 259 to 261 °C. For `c1ccc(-n2c3ccccc3c3ccccc32)cc1`, the melting point was 96 to 97 °C. Work on `COC(=O)CCc1cc2c(c(C(C)(C)C)c1)OC(=O)C2c1cc(C)ccc1C` (centres undefined) yielded a melting point of 80 °C. For `O=C(NCc1ccccc1)Nc1nnc(-c2ccc(CN3CCCCCC3)s2)s1`, the melting point was 232 to 233 °C. With `CCNCC1(C)CN(c2cc3c(cc2F)c(=O)c(C(=O)O)cn3C2CC2)C1` the melting point was 221 to 226 °C. In the case of `CC(C)(C)C(=O)NS(=O)(=O)c1cccc([N+](=O)[O-])c1`, the melting point is reported as 178 to 181 °C. Compound `COc1ccc(-n2c(=O)cc(C)c3c(=O)n(-c4ccccc4)[nH]c32)cc1` has a melting point of 189 to 190 °C. `CC(C)(C)c1cc(C(C)(CC(=O)NN)c2cc(C(C)(C)C)c(O)c(C(C)(C)C)c2)cc(C(C)(C)C)c1O` gave a melting point of 172 °C. Compound `CCC(=CC(CNC(=O)c1ccncn1)=NO)C(C)[N+](=O)[O-]` (centres undefined) has a melting point of 150 to 152 °C. `COc1ccc(C2=CCN(c3ccc(Cl)c(Cl)c3)C2=O)cc1OCCN1CCCCC1` showed a melting point of 98 to 99 °C. Work on `Cc1cc(N2NCCNC2=O)cc(Cl)c1C(O)c1ccc(Cl)cc1` (centres undefined) yielded a melting point of 146 to 147 °C. Work on `COc1nc(C)c(C)nc1NC(=O)N1CCN(c2c(C)c(C)cc(C)c2C)CC1` yielded a melting point of 202 to 204 °C. `CC(C)C1C(C=C(Br)Br)=CC=CN1C12CC3CC(CC(C3)C1)C2` (centres undefined) showed a melting point of 176 to 177 °C. Compound `Cc1nc(C(Cl)(Cl)Cl)nc(OC(=O)N(C)C)c1Cl` has a melting point of 87 to 88 °C. With `COc1cc(C)c(C(O)c2c(Cl)cncc2C(F)(F)F)c(OC)c1OC` (centres undefined) the melting point was 102 to 105 °C. `O=c1[nH]c2cc(Cl)ccc2c(O)c1-c1ccccc1Br` showed a melting point of 357 to 358 °C. In the case of `COc1cc2ccn(C(=O)c3ccc(-c4ccccc4)c(C)c3)c2cc1OCCN(C)C`, the melting point is reported as 152 to 154 °C. Compound `CCOC(=O)Cc1nn(CC(=O)Nc2ccccc2)c(=O)c2ccccc12` has a melting point of 187 °C. Compound `COc1ccc(C(=O)n2c(C)c(Cc3cc(=O)n(-c4cccc(C(F)(F)F)c4)[nH]3)c3cc(OC)ccc32)cc1` has a melting point of 91 to 94 °C. For `CC(C)(C)NCC(O)COc1ccc2c(=O)cc(-c3ccc(O)c(O)c3)oc2c1` (centres undefined), the melting point was 165 °C. Work on `COc1ccccc1N1CCN(CCC(N)=O)CC1` yielded a melting point of 145 to 146 °C. Work on `Cc1nnc(-n2cc(C(=O)N3CCCC3)c3c4cc(F)ccc4n(C)c3c2=O)s1` yielded a melting point of 299 to 301 °C. Compound `COc1cc2c(cc1OC)C(C)C(C)=NN=C2c1cccc(Cl)c1` (centres undefined) has a melting point of 156 to 158 °C. `CCOc1ccc2[nH]c(C(=O)O)cc2c1` gave a melting point of 180 °C. Compound `Cc1ccc(S(=O)(=O)N=c2ccc(C)cn2-c2cccc(C(F)(F)F)c2)cc1` has a melting point of 174 °C. `CCOC(=O)C1OC1C(=O)Nc1ccccc1` (centres undefined) gave a melting point of 83 to 84 °C. For `Nc1nc2c(ncn2C2C=CC(CO)O2)c(=O)[nH]1` (centres undefined), the melting point was over 250 °C. For `N#Cc1ccccc1/C=C/C(=O)Nc1cc(Cl)cc(NC(=N)c2ccccc2)c1`, the melting point was 220 to 221 °C. `N#CC(c1ccccc1)(c1ccccc1)[C@H]1CCCN(CCc2ccc(CO)cc2)C1` showed a melting point of 110 to 114 °C. `CC1(C)CC(CCn2c(=O)[nH]c3ncc(-c4ccc(O)cc4)nc32)CCO1` (centres undefined) showed a melting point of 232 to 234 °C.
